# Assay results reported in patent US8440627B2, “G protein coupled receptor agonists and antagonists and methods of use” (Tufts Medical Center, Inc., priority 2004, dated 2013).
# Ends that are not written are not given here.
# What was measured:
# human platelets = assay: Human platelet aggregation to thrombin; assay type: cell-based; conditions: thrombin greater than 11 nM; RWJ-56110 supplemented with PAR1-blocking antibody plus bivalirudin
# CXCR4 [1] = biological target: CXCR4 (Mus musculus, UniProt P70658)
# healthy untreated mice = assay: Peripheral leukocyte counts in healthy mice; assay type: in vivo; conditions: sub-Q once per day 2.5 mg/kg day 1, 1.0 mg/kg days 2-6, one week
# Description: (§1) The long-term effects of the chemokine pepducins on peripheral leukocyte counts were assessed in healthy untreated mice. Pepducins were injected once per day sub-Q (2.5 mg/kg day 1, 1.0 mg/kg days 2-6) and circulating leukocyte levels measured over a one week period. […] The effects of the chemokine pepducins on peripheral leukocyte count were quite similar in septic mice subjected to cecal ligation and puncture (CLP).
# [2] = tested on: thioglycollate peritonitis model in mice; assay: Thioglycollate peritonitis model: leukocyte recruitment into the peritoneal cavity; assay type: in vivo
# Description: Mice were injected with 1 mL of 3% thioglycollate i.p. Thioglycollate induces peritoneal macrophages to secret cytokines and leukocytes are then recruited into the peritoneal cavity. Pepducins were injected i.v. at the indicated doses. After 4 hours, cells were collected by peritoneal lavage, stained with Giemsa and counted under 40× magnification. N=60.
# The effects of the CXCR1/2 and CXCR4 pepducins on neutrophil homeostasis under normal versus pro-inflammatory conditions in mice were evaluated. Leukocyte recruitment was first assessed in a thioglycollate peritonitis model.
# [3] = tested on: mice subjected to cecal ligation and puncture (CLP); assay: CLP sepsis: plasma liver enzyme levels (AST, ALT); assay type: in vivo; conditions: for plasma levels of ALT: 24 hours after CLP
# Description: Since organ failure determines the outcome of patients in SIRS, liver function was investigated. Mice were sacrificed 24 hours after CLP and plasma levels of ALT, an enzyme that increases with loss of liver function, were measured. In sham-treated mice, i.e., abdominal incision without cecal ligation and puncture, no elevation of ALT was observed.
# Liver failure is a common sequalae of severe sepsis. Treatment with the CXCR1/2 pepducins right after CLP reduced liver damage as evidenced by decreases of 52-87% in liver enzyme levels (AST, ALT) whereas the CXCR4 pepducin, x4pal-i1, had no effect. When CXCR1/2 pepducin treatment was initiated 8 h after CLP, the rise in plasma AST and ALT levels were halted by the 16 h time point and then dropped to near normal levels.
# CXCR4 [4] = biological target: T1, CXCR4 (Homo sapiens, UniProt P61073)
# Target sequence in this assay (P61073 whole entry): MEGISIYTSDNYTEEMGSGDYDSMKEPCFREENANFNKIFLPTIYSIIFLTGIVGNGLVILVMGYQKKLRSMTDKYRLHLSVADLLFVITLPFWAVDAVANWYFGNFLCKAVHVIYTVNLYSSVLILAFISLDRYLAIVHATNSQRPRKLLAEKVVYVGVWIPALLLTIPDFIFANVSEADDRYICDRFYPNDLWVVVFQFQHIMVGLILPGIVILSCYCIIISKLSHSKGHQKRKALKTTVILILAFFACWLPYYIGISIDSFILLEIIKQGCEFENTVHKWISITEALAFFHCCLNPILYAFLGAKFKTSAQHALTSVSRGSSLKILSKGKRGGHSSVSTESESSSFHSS
# [5] = tested on: mice subjected to cecal ligation and puncture (CLP); assay: CLP sepsis: BAL neutrophils and lung histology; assay type: in vivo
# Description: Adult respiratory […] syndrome (ARDS) results from excessive neutrophil infiltration into lungs and their activation, leading to fibrin deposition. Sepsis can cause ARDS, which has a high lethality. Panels A and B: Mice were sacrificed 24 hours after CLP and BAL was performed. Neutrophils were counted after staining with Giemsa, TNF was measured by ELISA. *p<0.02 vs. vehicle treated group. C Lung histology. Mice were sacrificed 48 hours after CLP.
# Blockade of CXCR1/2 signaling with pepducins reversed several criteria of established SIRS in the septic mice. First, the effect of CXCR1/2 pepducins on systemic KC levels, the mouse IL-8 ortholog was examined. In untreated mice, KC levels rose over the 16 h period after CLP and remained elevated for at least 48 h. Following administration of the CXCR1/2 pepducins at the 8 h time point, the systemic KC levels rapidly dropped and remained low thereafter. Many of the untreated CLP mice became tachypnic and hypoxemic as early as 24 h and this correlated well with mortality. During sepsis, bacterial endotoxin stimulates lung epithelia to secrete IL-8 which recruits and activates leukocytes. The resulting neutrophil margination eventually leads to lung damage. The number of neutrophils in the bronchioalveolar lavage (BAL) fluid of untreated mice increased by 100-fold as early as 4 h after CLP and then rose to 200-300 fold after 8 h. […]
# [6] = tested on: mice subjected to cecal ligation and puncture (CLP); assay: Cecal ligation and puncture (CLP) sepsis: survival and body weight; assay type: in vivo
# Description: The time point selected for treatment is at the induction of non-lethal sepsis by cecal ligation and puncture (CLP). After an initial dose of 2.5 mg/kg, 1 mg/kg pepducin (or vehicle) was injected into the mice subcutaneously each day for six days. *: Four mice out of the vehicle-treated group were sacrificed after six days; #: one mouse out of the groups treated with x1/2i1LCA10 pepducin was sacrificed on day 6, and all remaining surviving mice were sacrificed at 17 days. […] In the left panel, mice were treated with x1/2pal16, x1/2i1LCA10 or vehicle (20% DMSO) at the time point of CLP. In the right panel, mice were monitored for body weight every day.
# There are only few reports where treatment of sepsis is sufficient, even after the onset of systemic inflammatory response syndrome. […] The time point selected for treatment is […] the induction of non-lethal sepsis by cecal ligation and puncture (CLP). […] In the right panel, mice were monitored for their body weight every day.
# CLP was performed on 6 to 8 week old female CF-1 mice. […] In the left panel, mice were monitored for body weight every day. […]
# The diagnosis of sepsis is often delayed and agents cannot be readily administered in a preventative mode, therefore pepducin treatment was withheld until 8 h after the CLP procedure. […]
# [7] = tested on: mice subjected to cecal ligation and puncture (CLP); assay: CLP sepsis: peripheral leukocyte count; assay type: in vivo; conditions: septic mice after CLP, once per day administration, blood 1-17 days
# Excerpt: It has been shown that SDF-1α and CXCR4 are involved in recruiting immature neutrophils from the bone marrow. High levels of CXCR4 expression and activation lead to homing of senescent neutrophils to the bone marrow, whereas chemokines acting on the CXCR2 receptors of neutrophils, i.e., KC, Gro-α or IL-8, lead to increased neutrophil mobilization. Blood was drawn 1, 3, 5, 7 and 17 days after CLP, and leukocytes were counted. An initial decrease in leukocytes in vehicle-treated mice was observed. […] This observation would match previous reports where either blocking of CXCR4 or stimulation of CXCR2 lead to neutrophilia in the peripheral blood of mice.
# as §1
# CXCR4 [8] = biological target: T1, CXCR4; conditions: CXCR4 co-expressed with CXCR1 or CXCR2
# Target sequence in this assay (P61073 whole entry, species assumed): as the sequence (P61073 whole entry) above
# [9] = tested on: mice subjected to cecal ligation and puncture (CLP); assay: CLP sepsis: bleeding time, D-dimer, platelet counts (DIC); assay type: in vivo
# Description: Systemic inflammatory responses, the derangement of coagulation and fibrinolysis in DIC is mediated by several pro-inflammatory cytokines. Changes in bleeding time and increases in D-dimer, which is a product of excessive counter-regulatory fibrinolysis, is a hallmark of disseminated intravascular coagulation, leading to widespread deposition of fibrin in the circulation, contributing to multi organ failure and death in septic patients. […] A. Bleeding time was measured 24 h after CLP and immediate onset of treatment. […] B. D-dimer levels were measured 48 hours after CLP. As a surrogate marker of the amount of fibrin deposition, D-dimer was increased after CLP, to a higher extent in vehicle-treated mice than in CXCR2 pepducin-treated mice. C. Depicts the bleeding time of mice that were treated 8 h after CLP. D. Depicts the D-dimer levels of mice treated 8 h after CLP.
# Therefore, systemic platelet activation was observed by measuring platelet counts and D-dimer levels, a marker of the increased fibrin production and subsequent fibrinolysis that occurs during DIC. […] When the CXCR1/2 pepducin treatment was delayed until 8 h after the CLP procedure, D-dimer levels were still reduced by 60-70%.
# [10] = tested on: MDA-MB-231 human breast cancer cells; assay: Chemotaxis assay (20 h, 48 blindwell microchemotaxis chamber) toward NIH3T3 conditioned media, MDA-MB-231; assay type: cell-based; conditions: MDA-MB-231, NIH3T3 conditioned media, FIG. 27
# Description: (§2) Conditioned media was prepared from NIH3T3. Chemotaxis assays (20 h) were performed using a 48 blindwell microchemotaxis chamber (Neuroprobe) equipped with […] pore nitrocellulose filters for OVCAR-4 human ovarian cancer cells and MDA-MB-231 human breast cancer cells. Data is expressed as chemotaxis index which is the ratio between the distance of migration toward NIH3T3 conditioned media over migration toward RPMI medium alone.
# [11] = tested on: OVCAR-4 human ovarian cancer cells; assay: Chemotaxis assay (20 h, 48 blindwell microchemotaxis chamber) toward NIH3T3 conditioned media, OVCAR-4; assay type: cell-based; conditions: OVCAR-4, NIH3T3 conditioned media, FIG. 27
# Description: as §2
# [12] = thioglycollate i.p., pepducin i.v., 4 hours
# CXCR4 (Mus musculus, UniProt P70658), sequence (P70658 whole entry): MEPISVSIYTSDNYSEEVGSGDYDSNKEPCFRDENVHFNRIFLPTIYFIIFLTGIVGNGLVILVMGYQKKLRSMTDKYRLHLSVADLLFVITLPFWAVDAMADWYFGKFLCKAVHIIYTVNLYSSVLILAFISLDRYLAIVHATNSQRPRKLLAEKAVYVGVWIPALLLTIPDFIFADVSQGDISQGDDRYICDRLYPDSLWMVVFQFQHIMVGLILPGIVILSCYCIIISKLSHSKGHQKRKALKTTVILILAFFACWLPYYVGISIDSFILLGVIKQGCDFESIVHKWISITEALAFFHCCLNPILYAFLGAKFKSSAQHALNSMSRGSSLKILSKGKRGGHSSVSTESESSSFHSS
compound,measurement,setting,value
NCC[C@H](NC(=O)[C@H](Cc1ccc(F)c(F)c1)NC(=O)Nc1ccc2c(CN3CCCC3)cn(Cc3c(Cl)cccc3Cl)c2c1)C(=O)NCc1ccccc1 [RWJ-56110],thrombin activation of PAR4-dependent aggregation,human platelets,regained full activation
"CXCR1/CXCR2 i1 loop pepducin, sequence YSRVGRSVTD, lithocholate lipid modification (SEQ ID NO 20, 23) (also: lithocholate lipid modification) [x1/2i1LCA10]",migration of leukocytes towards SDF-1α,CXCR4 [1],does not inhibit migration
same,peripheral leukocyte count,healthy untreated mice,neither x1/2pal-i3 nor x1/2LCA-i1 altered the leukocyte count
same,"IC50, inhibition of transmigration of neutrophils into the peritoneal cavity",[2]; [12],0.15 mg/kg
same,transmigration of neutrophils into the peritoneal cavity,[2]; [12],completely inhibited
same,plasma levels of ALT,[3],an increase was observed but it was significantly less compared to vehicle treated mice
same,migration of leukocytes towards SDF-1α,CXCR4 [4],does not inhibit migration
same,lung fibrin deposition (histology),[5]; lungs harvested at 48 h after CLP,significant protection against fibrin deposition
same,neutrophils in bronchioalveolar lavage (BAL) fluid,[5]; treatment at 8 h after CLP,rapid drop
same,sepsis-induced mortality,"[6]; pepducin immediately after CLP, 2.5 mg/kg then 1 mg/kg until day 6",highly significant decrease
same,peripheral blood leukocyte levels,[7],remained in the normal range
same,peripheral blood leukocyte levels,[7]; listed as x1/2LCA-i1,within the normal range
same,inhibition of CXCR4,CXCR4 [8],does not inhibit CXCR4
same,bleeding time,"[9]; 24 h after CLP, immediate onset of treatment",normal bleeding times
same,D-dimer levels,[9]; 48 hours after CLP,significant reductions
"CXCR4 i1 loop pepducin, CXCR4 antagonist; x4i1pal12 is MGYQKKLRSMTD with palmitate (SEQ ID NO 25) (also: palmitate) [x4pal-i1]",chemotactic migration of breast cancer cells,[10],block chemotactic migration
same,peripheral leukocyte count,healthy untreated mice,caused a leukocytosis
same,transmigration of neutrophils into the peritoneal cavity,[2]; [12],substantial increase
same,"EC50, increase in peritoneal neutrophils",[2]; thioglycollate peritonitis,~0.1 mg/kg
same,plasma levels of ALT,[3],an increase in ALT
same,"effect on liver damage, liver enzyme levels (AST, ALT)",[3]; treatment right after CLP,no effect
same,chemotactic migration of ovarian cancer cells,[11],block chemotactic migration
same,effect on survival,[6]; CLP mice,no effect on survival
same,peripheral blood leukocyte levels,[7],accelerated leukocytosis on day 1 and leukopenia by day 7
same,peripheral blood leukocyte levels,[7]; listed as x4i1pal12,"increased immediately, but decreased 5 days after CLP to very low levels"
"x1/2pal-i1: I1-loop pepducin based on CXCR1/2; x1/2i1pal12 is ILYSRVGRSVTD with palmitate (SEQ ID NO 18, 21) (also: palmitate)",chemotactic migration of breast cancer cells,[10],block chemotactic migration
same,chemotactic migration of ovarian cancer cells,[11],block chemotactic migration
